US8628961B2, “Small molecule antagonists of phosphatidylinositol-3,4,5-triphosphate (PIP3) and uses thereof” (Tufts University, priority 2010, dated 2014)

Key:
[1] = tested on: PTEN-deficient U87MG cells; experiment: Sytox cell death assay, U87MG re-expressing wild-type or R130M mutant PTEN; type: cell-based, human; details: 25, 50, 100 μM, 48 hr
Experimental: After treatment with 25, 50, or 100 μM PIT-1 for 48 hr, cell death was analyzed using Sytox cell death assay.
Based on the critical role of PIP3-dependent […] signaling in the regulation of cell survival, the effect of PIT-1 on the cancer cell viability was tested. Cancer cells were seeded into 96-well plates (white plates for ATP assay; black plates for fluorescent assay; clear plates for MTS assay) at the density of 5-10×10^3 cells per well in 100 μl of the appropriate media. Compounds were added at a series of concentrations and incubated for different times. For the ATP assay, a luminescence-based commercial kit (CellTiter-Glo, Promega, Madison, Wis.) was used. Thirty microliters of cell lysis/ATP detection reagent was added to each well, mixed for 10 min at room temperature, and the luminescence was measured using a Wallac Victor 3 plate reader (Perkin-Elmer, Wellesley, Mass.). […] Twenty microliters of the combined MTS/PMS solution was added into each well, incubated for 4 hr at 37° C., and the absorbance at 490 nm was measured using a Wallac Victor 3 plate reader. For the Sytox cell death assay, measuring loss of plasma membrane integrity, cells were incubated with 1 μM Sytox Green reagent (Molecular Probes, Eugene, Oreg.) for 30 min at 37° C. and the fluorescence intensity was measured using Wallac Victor 3 plate reader with excitation at 485 nm and emission at 545 nm. […]

HUVEC cells = experiment: HUVEC migration, wound healing and transwell assays; type: cell-based, human
Experimental: Two models of cell migration were used, a transwell migration model and a wound closure model. Migration of cancer and endothelial cells was evaluated using 24-transwell Boyden chamber (Costar, Bedford, Mass.) with a polystyrene membrane (6.5 mm diameter, 10 μm thickness, and 8 μm pore size). Cells were suspended in serum-free media and seeded in the upper compartment of each well (2×10^4 cells/well) in the presence or absence of different compounds at the indicated concentrations. The lower compartment contained 600 μl of serum-free culture media supplemented with growth factors. After an 8-hr incubation at 37° C., cells were fixed and stained with 0.1% crystal violet. Non-migrating cells on the upper surface of the filter were removed, and the stained cells that migrated to the lower side were photographed using a phase-contrast microscope (Nikon, Japan) in five random fields. The cells were lysed with 10% acetic acid, and colorimetric determination was made at 595 nm using Wallac Victor 3 plate reader.
Cancer or endothelial cells were seeded into fibronectin-coated 96-well plates (2×10^4 cells/well). […]
Second, HUVEC were serum starved and treated with PITs (25, 50 100 μM) or PIT-1 is (100 μM) for 8 hr, followed by bFGF (10 ng/ml) stimulation for 15 min. […] The number of cell ruffles/lamellipodia was counted in five random fields.

SMILES: O=C(NC(=S)Nc1cc([N+](=O)[O-])cc(Cl)c1O)c1ccccc1 [PIT-1]
- toxicity in U87MG lacking PTEN activity versus wild-type PTEN [1]: more pronounced in PTEN-deficient U87MG cells lacking PTEN activity
- migration of HUVEC cells (HUVEC cells): efficiently blocked migration of HUVEC cells
